# Measured values reported in US20220364989A1, “METHOD FOR MEASURING PHOTOTOXICITY OR PHOTOALLERGY AND REAGENT FOR USE THEREIN” (FUJIFILM Corporation, priority 2018, published 2022).
# Read-outs that look alike come from different tables or passages of the source.
# How the values were obtained:
# [1] = cited from earlier work
# [2] = Average score of NAC and NAL depletion and phototoxicity or photoallergy determination, UV detection; conditions: for Average score (%): single compound
# [3] = cited from earlier work; remark: listed apart in the source
# [4] = Average score of NAC and NAL depletion and phototoxicity or photoallergy determination, fluorescence detection
# [5] = NAC depletion under and without ultraviolet irradiation, HPLC with fluorescence detection (284 nm excitation, 333 nm fluorescence); conditions: for NAC Depletion (%) / NAC Depletion (%) without light irradiation: without light irradiation
# [6] = NAC depletion under and without ultraviolet irradiation, HPLC with UV detection (281 nm)
# [7] = NAL depletion under and without ultraviolet irradiation, HPLC with fluorescence detection (284 nm excitation, 333 nm fluorescence); conditions: for NAL Depletion (%) / NAL Depletion (%) without light irradiation: without light irradiation
# [8] = NAL depletion under and without ultraviolet irradiation, HPLC with UV detection (281 nm)
# [9] = 25° C. 24 hours light-shielded, test substance solution 1 mmol/L
# [10] = 2,000 μW/cm^2 for 1 hour then 25° C. 23 hours, test substance solution 1 mmol/L
# [11] = average of NAC and NAL depletion
# [12] = without light irradiation, single compound
# [13] = photoallergic compound concentration 0.05 mg/mL
# [14] = photoallergic compound concentration 0.2 mg/mL
# [15] = photoallergic compound concentration 0.5 mg/mL
# [16] = under light irradiation, photoallergic compound concentration 0.05 mg/mL
# [17] = under light irradiation, photoallergic compound concentration 0.2 mg/mL
# [18] = under light irradiation, photoallergic compound concentration 0.5 mg/mL
# [19] = without light irradiation, photoallergic compound concentration 0.05 mg/mL
# [20] = without light irradiation, photoallergic compound concentration 0.2 mg/mL
# [21] = without light irradiation, photoallergic compound concentration 0.5 mg/mL
compound,measurement,setting,value
"CC(O)CO (racemic) [No. 54, Propylene glycol]",In vivo photoallergy,[1]; in vivo,Negative
same,Average score (%),[2]; under light irradiation,0.1%
same,In vivo phototoxicity,[3]; in vivo,Negative
same,Average score (%),"[4]; under light irradiation, single compound",0.3%
CC(CN1c2ccccc2Sc2ccccc21)N(C)C.Cl (racemic) [compound 14],Difference in depletion (under light irradiation - without light irradiation) NAC (%),[5]; single compound,76.4%
same,NAC Depletion (%),[5]; single compound,23.6%
same,Difference in depletion (under light irradiation - without light irradiation) NAC (%),[6],61.9%
same,NAC Depletion (%) without light irradiation,[6]; [9],27.6%
same,NAC Depletion (%) under light irradiation,[6]; [10],89.5%
same,In vivo photoallergy,[1]; reported in References 1 and 2,Positive
same,Average score (%) without light irradiation,[2]; [11],15.6%
same,In vivo phototoxicity,[3]; reported in References 1 to 3,Positive
same,Difference in depletion (under light irradiation - without light irradiation) Average score (%),[4]; single compound,41.5%
same,Average score (%),[4]; [12],12.2%
same,Difference in depletion (under light irradiation - without light irradiation) NAL (%),[7]; single compound,6.6%
same,NAL Depletion (%),[7]; single compound,0.8%
same,NAL Depletion (%) without light irradiation,[8]; [9],3.5%
same,NAL Depletion (%) under light irradiation,[8]; [10],−438.6%
Cc1ccc(C=C2C(=O)C3(C)CCC2C3(C)C)cc1 (racemic) [compound 39],Difference in depletion (under light irradiation - without light irradiation) NAC (%),[5]; single compound,3.9%
same,NAC Depletion (%),[5]; single compound,0.2%
same,Difference in depletion (under light irradiation - without light irradiation) NAC (%),[6],3.6%
same,NAC Depletion (%) without light irradiation,[6]; [9],0.7%
same,NAC Depletion (%) under light irradiation,[6]; [10],4.3%
same,In vivo photoallergy,[1]; reported in References 1 and 2,Negative
same,Difference in depletion (under light irradiation - without light irradiation) Average score (%),[2],1.8%
same,Average score (%) under light irradiation,[2]; [11],2.1%
same,Average score (%) without light irradiation,[2]; [11],0.3%
same,In vivo phototoxicity,[3]; reported in References 1 to 3,Negative
same,Difference in depletion (under light irradiation - without light irradiation) Average score (%),[4]; single compound,2.0%
same,Average score (%),[4]; [12],0.1%
same,Difference in depletion (under light irradiation - without light irradiation) NAL (%),[7]; single compound,0.0%
same,NAL Depletion (%),[7]; single compound,0.0%
same,Difference in depletion (under light irradiation - without light irradiation) NAL (%),[8],0.0%
same,NAL Depletion (%) without light irradiation,[8]; [9],0.0%
same,NAL Depletion (%) under light irradiation,[8]; [10],0.0%
"C[S+](C)[O-] [No. 58, Dimethyl sulfoxide]",In vivo photoallergy,[1]; in vivo,Negative
same,Average score (%),[2]; under light irradiation,0.4%
same,In vivo phototoxicity,[3]; in vivo,Negative
[Na+].[O-][n+]1ccccc1[S-] [compound 26],Difference in depletion (under light irradiation - without light irradiation) NAC (%),[5]; single compound,91.6%
same,NAC Depletion (%),[5]; single compound,8.4%
same,Difference in depletion (under light irradiation - without light irradiation) NAC (%),[6],89.3%
same,NAC Depletion (%) without light irradiation,[6]; [9],10.7%
same,NAC Depletion (%) under light irradiation,[6]; [10],100.0%
same,In vivo photoallergy,[1]; reported in References 1 and 2,Positive
same,Average score (%) under light irradiation,[2]; [11],61.0%
same,Difference in depletion (under light irradiation - without light irradiation) Average score (%),[4]; single compound,52.4%
same,Average score (%),[4]; [12],4.2%
same,Difference in depletion (under light irradiation - without light irradiation) NAL (%),[7]; single compound,13.3%
same,NAL Depletion (%),[7]; single compound,0.0%
same,NAL Depletion (%) without light irradiation,[8]; [9],−34.1%
same,NAL Depletion (%) under light irradiation,[8]; [10],21.9%
COc1c2ccoc2cc2oc(=O)ccc12 [compound 31],Difference in depletion (under light irradiation - without light irradiation) NAC (%),[5]; single compound,91.9%
same,NAC Depletion (%),[5]; single compound,0.0%
same,Difference in depletion (under light irradiation - without light irradiation) NAC (%),[6],89.6%
same,NAC Depletion (%) without light irradiation,[6]; [9],1.1%
same,NAC Depletion (%) under light irradiation,[6]; [10],90.6%
same,In vivo photoallergy,[1]; reported in References 1 and 2,Negative
same,Difference in depletion (under light irradiation - without light irradiation) Average score (%),[2],48.9%
same,Average score (%) under light irradiation,[2]; [11],49.5%
same,Average score (%) without light irradiation,[2]; [11],0.6%
same,In vivo phototoxicity,[3]; reported in References 1 to 3,Positive
same,Difference in depletion (under light irradiation - without light irradiation) Average score (%),[4]; single compound,48.9%
same,Average score (%),[4]; [12],0.1%
same,Difference in depletion (under light irradiation - without light irradiation) NAL (%),[7]; single compound,6.0%
same,NAL Depletion (%),[7]; single compound,0.2%
same,Difference in depletion (under light irradiation - without light irradiation) NAL (%),[8],8.2%
same,NAL Depletion (%) without light irradiation,[8]; [9],0.2%
same,NAL Depletion (%) under light irradiation,[8]; [10],8.4%
CC(C)OC(=O)C(C)(C)Oc1ccc(C(=O)c2ccc(Cl)cc2)cc1 [compound 38],Difference in depletion (under light irradiation - without light irradiation) NAC (%),[5]; single compound,98.7%
same,NAC Depletion (%),[5]; single compound,0.0%
same,NAC Depletion (%) without light irradiation,[6]; [9],0.0%
same,NAC Depletion (%) under light irradiation,[6]; [10],−1178.7%
same,Average score (%) without light irradiation,[2]; [11],0.0%
same,In vivo phototoxicity,[3]; reported in References 1 to 3,Positive
same,Difference in depletion (under light irradiation - without light irradiation) Average score (%),[4]; single compound,67.8%
same,Average score (%),[4]; [12],0.0%
same,Difference in depletion (under light irradiation - without light irradiation) NAL (%),[7]; single compound,37.0%
same,NAL Depletion (%),[7]; single compound,0.0%
same,Difference in depletion (under light irradiation - without light irradiation) NAL (%),[8],40.7%
same,NAL Depletion (%) without light irradiation,[8]; [9],0.0%
same,NAL Depletion (%) under light irradiation,[8]; [10],40.7%
Tetrachlorosalicylanilide [1-4],Difference in depletion (under light irradiation - without light irradiation) NAC (%),[5]; [13],76.5%
same,Difference in depletion (under light irradiation - without light irradiation) NAC (%),[5]; [14],45.3%
same,Difference in depletion (under light irradiation - without light irradiation) NAC (%),[5]; [15],21.5%
same,NAC Depletion (%) under light irradiation,[5]; [13],98.2%
same,NAC Depletion (%) under light irradiation,[5]; [14],97.5%
same,NAC Depletion (%) under light irradiation,[5]; [15],97.2%
same,NAC Depletion (%) without light irradiation,[5]; [13],21.7%
same,NAC Depletion (%) without light irradiation,[5]; [14],52.2%
same,NAC Depletion (%) without light irradiation,[5]; [15],75.6%
same,NAC Depletion (%) under light irradiation,[6]; [16],(58.0) %
same,NAC Depletion (%) under light irradiation,[6]; [17],(−96.9) %
same,NAC Depletion (%) under light irradiation,[6]; [18],(−338.2) %
same,NAC Depletion (%) without light irradiation,[6]; [19],34.2%
same,NAC Depletion (%) without light irradiation,[6]; [20],70.1%
same,NAC Depletion (%) without light irradiation,[6]; [21],93.7%
same,Average score (%) under light irradiation,[2]; [16],44.0%
same,Average score (%) under light irradiation,[2]; [17],−14.9%
same,Average score (%) under light irradiation,[2]; [18],−128.5%
same,Average score (%) without light irradiation,[2]; [19],17.0%
same,Average score (%) without light irradiation,[2]; [20],35.4%
same,Average score (%) without light irradiation,[2]; [21],48.2%
same,Difference in depletion (under light irradiation - without light irradiation) Average score (%),[4]; [13],54.5%
same,Difference in depletion (under light irradiation - without light irradiation) Average score (%),[4]; [14],58.9%
same,Difference in depletion (under light irradiation - without light irradiation) Average score (%),[4]; [15],54.3%
same,Average score (%) under light irradiation,[4]; [16],65.4%
same,Average score (%) under light irradiation,[4]; [17],85.2%
same,Average score (%) under light irradiation,[4]; [18],93.0%
same,Average score (%) without light irradiation,[4]; [19],10.9%
same,Average score (%) without light irradiation,[4]; [20],26.2%
same,Average score (%) without light irradiation,[4]; [21],38.7%
same,Difference in depletion (under light irradiation - without light irradiation) NAL (%),[7]; [13],32.5%
same,Difference in depletion (under light irradiation - without light irradiation) NAL (%),[7]; [14],72.6%
same,Difference in depletion (under light irradiation - without light irradiation) NAL (%),[7]; [15],87.1%
same,NAL Depletion (%) under light irradiation,[7]; [13],32.5%
same,NAL Depletion (%) under light irradiation,[7]; [14],72.9%
same,NAL Depletion (%) under light irradiation,[7]; [15],88.9%
same,NAL Depletion (%) without light irradiation,[7]; [13],0.0%
same,NAL Depletion (%) without light irradiation,[7]; [14],0.2%
same,NAL Depletion (%) without light irradiation,[7]; [15],1.8%
same,Difference in depletion (under light irradiation - without light irradiation) NAL (%),[8]; [13],30.3%
same,Difference in depletion (under light irradiation - without light irradiation) NAL (%),[8]; [14],66.5%
same,Difference in depletion (under light irradiation - without light irradiation) NAL (%),[8]; [15],78.7%
same,NAL Depletion (%) under light irradiation,[8]; [16],30.1%
same,NAL Depletion (%) under light irradiation,[8]; [17],67.1%
same,NAL Depletion (%) under light irradiation,[8]; [18],(81.3) %
same,NAL Depletion (%) without light irradiation,[8]; [19],−0.2%
same,NAL Depletion (%) without light irradiation,[8]; [20],0.6%
same,NAL Depletion (%) without light irradiation,[8]; [21],2.6%
